In ChEMBL document CHEMBL1154203, “N-[(3S)-Pyrrolidin-3-yl]benzamides as novel dual serotonin and noradrenaline reuptake inhibitors: impact of small structural modifications on P-gp recognition and CNS penetration” (Bioorg Med Chem Lett, 2009):

tested on: not listed separately; assay: in vitro; settings: human, liver microsomes
Description: Intrinsic clearance in human liver microsomes

microsomal CLint [µL/min/mg] | SMILES
26 | CC(C)CN(C(=O)c1ccc(Cl)cc1Cl)[C@H]1CCNC1
< 7 | CCCN(C(=O)c1cccc(Cl)c1Cl)[C@H]1CCNC1
< 8 | O=C(c1cccc(Cl)c1Cl)N(CC(F)(F)F)[C@H]1CCNC1
26 | O=C(c1cccc(Cl)c1Cl)N(CCC1CC1)[C@H]1CCNC1
< 7 | O=C(c1cccc(Cl)c1Cl)N(C1CCCC1)[C@H]1CCNC1
34 | CCC(CC)N(C(=O)c1cccc(Cl)c1Cl)[C@H]1CCNC1
< 7.6 | CC(C)C(=O)N(Cc1cccc(Cl)c1Cl)[C@H]1CCNC1

SMILES | microsomal CLint [µL/min/mg]
CC(C)CN(C(=O)c1cccc(Cl)c1Cl)[C@H]1CCNC1 | 11

tested on: not listed separately; assay: Lipophilicity, log D at pH 7.4; format: physicochemical; settings: buffer

SMILES | logD
CC(C)CN(C(=O)c1cccc(Cl)c1Cl)[C@H]1CCNC1 | 0.6

tested on: not listed separately; assay: Intrinsic clearance in human hepatocytes measured per million cells; format: ADME, cell-based, Liver, Hepatocyte; settings: not given

SMILES | hepatocyte CLint [µL/min/1e6 cells]
CC(C)CN(C(=O)c1cccc(Cl)c1Cl)[C@H]1CCNC1 | 3

target: Cytochrome P450 2C9 (Homo sapiens, UniProt P11712); assay: Inhibition of CYP2C9; format: ADME; settings: not given
Sequence (P11712 whole entry): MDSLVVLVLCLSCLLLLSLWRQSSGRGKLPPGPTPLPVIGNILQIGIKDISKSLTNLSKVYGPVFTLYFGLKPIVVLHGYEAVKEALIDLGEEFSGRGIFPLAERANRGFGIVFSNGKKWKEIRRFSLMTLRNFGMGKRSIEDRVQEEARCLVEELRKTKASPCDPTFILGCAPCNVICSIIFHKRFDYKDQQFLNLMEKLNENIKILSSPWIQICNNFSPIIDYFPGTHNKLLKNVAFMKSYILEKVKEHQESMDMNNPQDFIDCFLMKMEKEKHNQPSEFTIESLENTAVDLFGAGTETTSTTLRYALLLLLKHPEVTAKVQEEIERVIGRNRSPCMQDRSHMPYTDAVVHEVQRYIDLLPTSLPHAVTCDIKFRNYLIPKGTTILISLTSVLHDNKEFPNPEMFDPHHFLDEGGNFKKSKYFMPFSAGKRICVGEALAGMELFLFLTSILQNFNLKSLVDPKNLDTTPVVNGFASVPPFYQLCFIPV

SMILES | IC50 [nM]
CC(C)CN(C(=O)c1cccc(Cl)c1Cl)[C@H]1CCNC1 | > 30000

tested on: MDR1; assay: Permeability from apical to basolateral side of MDCK cells over expressing MDR1; format: ADME, cell-based, Canis lupus familiaris; settings: dog

Papp A→B [×10⁻⁶ cm/s] | SMILES
10 | O=C(c1cccc(Cl)c1Cl)N(C1CCCC1)[C@H]1CCNC1
15 | CC(C)C(=O)N(Cc1cccc(Cl)c1Cl)[C@H]1CCNC1

SMILES | Papp A→B [×10⁻⁶ cm/s]
CC(C)CN(C(=O)c1cccc(Cl)c1Cl)[C@H]1CCNC1 | 16

target: T1, Cytochrome P450 3A4 (Homo sapiens, UniProt P08684); assay: Inhibition of CYP3A4 using midazolam as a substrate; format: ADME; settings: not given
T1 sequence (P08684 whole entry): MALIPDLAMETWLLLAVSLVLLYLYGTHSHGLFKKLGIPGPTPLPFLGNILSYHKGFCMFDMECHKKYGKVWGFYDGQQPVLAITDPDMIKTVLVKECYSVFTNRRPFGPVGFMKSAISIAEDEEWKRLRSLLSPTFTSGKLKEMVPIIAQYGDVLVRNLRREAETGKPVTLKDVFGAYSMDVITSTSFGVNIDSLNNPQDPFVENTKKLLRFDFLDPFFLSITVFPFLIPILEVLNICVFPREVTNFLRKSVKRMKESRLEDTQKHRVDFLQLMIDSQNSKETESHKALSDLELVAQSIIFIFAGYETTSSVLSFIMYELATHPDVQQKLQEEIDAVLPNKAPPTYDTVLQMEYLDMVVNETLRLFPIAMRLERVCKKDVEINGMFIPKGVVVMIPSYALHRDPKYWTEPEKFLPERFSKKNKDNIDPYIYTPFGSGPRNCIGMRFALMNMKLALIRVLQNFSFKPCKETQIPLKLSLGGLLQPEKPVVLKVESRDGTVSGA

SMILES | IC50 [nM]
CC(C)CN(C(=O)c1cccc(Cl)c1Cl)[C@H]1CCNC1 | > 30000

target: T1, Cytochrome P450 3A4; assay: Inhibition of CYP3A4 using felodipine as a substrate; format: ADME; settings: not given

SMILES | IC50 [nM]
CC(C)CN(C(=O)c1cccc(Cl)c1Cl)[C@H]1CCNC1 | > 30000

tested on: MDR1; assay: Permeability from basolateral to apical side of MDCK cells over expressing MDR1; format: ADME, cell-based, Canis lupus familiaris; settings: dog

Papp B→A [×10⁻⁶ cm/s] | SMILES
64 | O=C(c1cccc(Cl)c1Cl)N(C1CCCC1)[C@H]1CCNC1
64 | CC(C)C(=O)N(Cc1cccc(Cl)c1Cl)[C@H]1CCNC1

SMILES | Papp B→A [×10⁻⁶ cm/s]
CC(C)CN(C(=O)c1cccc(Cl)c1Cl)[C@H]1CCNC1 | 43

tested on: not listed separately; assay: Apparent permeability from basolateral to apical side of human Caco-2 cells at 10 uM; format: ADME, cell-based; settings: not given

SMILES | Papp B→A at 10 µM [×10⁻⁶ cm/s]
CC(C)CN(C(=O)c1cccc(Cl)c1Cl)[C@H]1CCNC1 | 26

tested on: not listed separately; assay: Ratio of drug level from CSF to plasma in Beagle dog; format: ADME, Canis lupus familiaris; settings: not given

Kp | SMILES
0.1 | CC(C)C(=O)N(Cc1cccc(Cl)c1Cl)[C@H]1CCNC1

target: not listed separately; assay: Binding affinity to sigma opioid receptor; settings: not given

SMILES | IC50 [nM]
CC(C)CN(C(=O)c1cccc(Cl)c1Cl)[C@H]1CCNC1 | 5100

tested on: not listed separately; assay: Dissociation constant, pKa of the compound; format: physicochemical; settings: not given

SMILES | pKa
CC(C)CN(C(=O)c1cccc(Cl)c1Cl)[C@H]1CCNC1 | 10

species: Canis familiaris; assay: Increase in peak urethral pressure in Beagle dog; format: functional, Canis lupus familiaris, Urethra; settings: not given

SMILES | Activity [%]
CC(C)CN(C(=O)c1cccc(Cl)c1Cl)[C@H]1CCNC1 | 35

target: Sodium-dependent dopamine transporter (Homo sapiens, UniProt Q01959); assay: biochemical; settings: not given
Sequence (Q01959 whole entry): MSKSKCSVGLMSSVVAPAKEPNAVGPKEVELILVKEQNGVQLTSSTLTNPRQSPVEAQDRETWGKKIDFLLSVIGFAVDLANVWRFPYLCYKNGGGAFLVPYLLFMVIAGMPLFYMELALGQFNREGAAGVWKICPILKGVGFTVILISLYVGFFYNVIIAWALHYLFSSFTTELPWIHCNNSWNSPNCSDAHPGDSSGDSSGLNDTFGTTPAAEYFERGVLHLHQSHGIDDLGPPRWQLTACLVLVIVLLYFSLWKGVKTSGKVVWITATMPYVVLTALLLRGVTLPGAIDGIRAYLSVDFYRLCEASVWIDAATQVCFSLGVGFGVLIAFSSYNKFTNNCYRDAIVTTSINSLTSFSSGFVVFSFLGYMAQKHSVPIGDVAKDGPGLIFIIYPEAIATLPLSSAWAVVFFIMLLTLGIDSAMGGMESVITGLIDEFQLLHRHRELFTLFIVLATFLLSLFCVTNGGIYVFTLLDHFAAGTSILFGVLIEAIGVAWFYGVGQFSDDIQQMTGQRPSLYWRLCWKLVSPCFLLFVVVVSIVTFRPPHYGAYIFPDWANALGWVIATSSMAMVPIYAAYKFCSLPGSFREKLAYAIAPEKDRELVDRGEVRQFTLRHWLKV

Ki [nM] | SMILES
2070 | CC(C)CN(C(=O)c1cccc(C(F)(F)F)c1Cl)[C@H]1CCNC1
3070 | CC(C)CN(C(=O)c1cc(Cl)cc(Cl)c1)[C@H]1CCNC1
2400 | CC(C)CN(C(=O)c1ccc(Cl)cc1Cl)[C@H]1CCNC1
630 | CCCN(C(=O)c1cccc(Cl)c1Cl)[C@H]1CCNC1
3730 | O=C(c1cccc(Cl)c1Cl)N(CC(F)(F)F)[C@H]1CCNC1
404 | O=C(c1cccc(Cl)c1Cl)N(CCC1CC1)[C@H]1CCNC1
273 | CC(C)(C)CN(C(=O)c1cccc(Cl)c1Cl)[C@H]1CCNC1
983 | O=C(c1cccc(Cl)c1Cl)N(C1CCCC1)[C@H]1CCNC1
2600 | CCC(CC)N(C(=O)c1cccc(Cl)c1Cl)[C@H]1CCNC1
640 | CC(C)C(=O)N(Cc1cccc(Cl)c1Cl)[C@H]1CCNC1

SMILES | Ki [nM]
CC(C)CN(C(=O)c1cccc(Cl)c1Cl)[C@@H]1CCNC1 | 3090
CC(C)CN(C(=O)c1cccc(Cl)c1Cl)[C@H]1CCNC1 | 544

target: T2, Cytochrome P450 1A2 (Homo sapiens, UniProt P05177); assay: Inhibition of CYP1A2; format: ADME; settings: not given
T2 sequence (P05177 whole entry): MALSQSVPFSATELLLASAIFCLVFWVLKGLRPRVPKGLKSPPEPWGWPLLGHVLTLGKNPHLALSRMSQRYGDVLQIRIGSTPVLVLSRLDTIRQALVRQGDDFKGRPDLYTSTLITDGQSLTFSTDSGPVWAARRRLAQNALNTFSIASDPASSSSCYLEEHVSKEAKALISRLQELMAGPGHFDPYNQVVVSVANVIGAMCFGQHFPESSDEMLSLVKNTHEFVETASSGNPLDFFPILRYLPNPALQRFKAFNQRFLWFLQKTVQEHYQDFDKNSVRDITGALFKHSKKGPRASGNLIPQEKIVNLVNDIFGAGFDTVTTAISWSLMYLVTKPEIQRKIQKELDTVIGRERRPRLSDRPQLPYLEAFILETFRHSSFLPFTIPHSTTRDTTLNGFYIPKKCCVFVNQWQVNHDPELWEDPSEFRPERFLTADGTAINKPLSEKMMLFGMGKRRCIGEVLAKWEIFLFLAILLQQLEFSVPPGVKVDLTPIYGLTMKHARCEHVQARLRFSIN

SMILES | IC50 [nM]
CC(C)CN(C(=O)c1cccc(Cl)c1Cl)[C@H]1CCNC1 | > 30000

target: not listed separately; assay: Binding affinity to sodium channel; settings: not given

SMILES | IC50 [nM]
CC(C)CN(C(=O)c1cccc(Cl)c1Cl)[C@H]1CCNC1 | 3600

target: T1, Cytochrome P450 3A4; assay: Inhibition of CYP3A4 using testosterone as a substrate; format: ADME; settings: not given

SMILES | IC50 [nM]
CC(C)CN(C(=O)c1cccc(Cl)c1Cl)[C@H]1CCNC1 | > 30000

tested on: MDR1; assay: in vitro; settings: dog, MDCK-MDR1
Description: Efflux ratio of permeability from apical to basolateral over basolateral to apical side in MDCK cells over expressing MDR1

SMILES | efflux ratio
CC(C)CN(C(=O)c1cccc(Cl)c1Cl)[C@H]1CCNC1 | 2.7
CC(C)C(=O)N(Cc1cccc(Cl)c1Cl)[C@H]1CCNC1 | 4.3

target: Voltage-gated inwardly rectifying potassium channel KCNH2 (Homo sapiens, UniProt Q12809); assay: not given; settings: not given
Sequence (Q12809 whole entry): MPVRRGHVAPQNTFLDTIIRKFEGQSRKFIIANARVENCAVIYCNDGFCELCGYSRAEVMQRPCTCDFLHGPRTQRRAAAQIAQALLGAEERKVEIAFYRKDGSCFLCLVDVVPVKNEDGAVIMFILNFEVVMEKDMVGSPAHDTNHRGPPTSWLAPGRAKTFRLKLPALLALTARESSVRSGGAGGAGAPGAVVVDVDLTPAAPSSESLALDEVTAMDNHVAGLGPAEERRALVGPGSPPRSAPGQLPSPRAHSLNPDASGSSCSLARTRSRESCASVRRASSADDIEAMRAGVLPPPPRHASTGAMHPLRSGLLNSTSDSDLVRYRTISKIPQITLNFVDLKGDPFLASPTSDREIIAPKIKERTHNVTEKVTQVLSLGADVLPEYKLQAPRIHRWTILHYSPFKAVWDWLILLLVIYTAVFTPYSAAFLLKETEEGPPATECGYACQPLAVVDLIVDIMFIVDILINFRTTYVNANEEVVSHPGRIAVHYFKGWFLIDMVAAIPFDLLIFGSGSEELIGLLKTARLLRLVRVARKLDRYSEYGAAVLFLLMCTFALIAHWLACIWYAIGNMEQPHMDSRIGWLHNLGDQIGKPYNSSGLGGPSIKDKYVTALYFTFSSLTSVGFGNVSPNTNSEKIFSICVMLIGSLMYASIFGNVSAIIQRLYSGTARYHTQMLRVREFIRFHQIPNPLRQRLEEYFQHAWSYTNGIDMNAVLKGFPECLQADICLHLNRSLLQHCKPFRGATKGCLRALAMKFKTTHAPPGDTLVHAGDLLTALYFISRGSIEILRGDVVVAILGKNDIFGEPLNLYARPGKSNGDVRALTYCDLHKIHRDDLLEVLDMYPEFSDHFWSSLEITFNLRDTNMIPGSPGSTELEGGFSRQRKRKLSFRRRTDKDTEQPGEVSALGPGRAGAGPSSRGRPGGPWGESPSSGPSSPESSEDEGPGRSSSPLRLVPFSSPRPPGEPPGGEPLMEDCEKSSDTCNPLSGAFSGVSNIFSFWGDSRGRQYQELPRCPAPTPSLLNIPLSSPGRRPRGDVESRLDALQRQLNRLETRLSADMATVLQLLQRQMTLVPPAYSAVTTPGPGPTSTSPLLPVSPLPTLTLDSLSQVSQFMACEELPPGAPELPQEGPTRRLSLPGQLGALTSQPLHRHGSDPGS

SMILES | IC50 [nM]
CC(C)CN(C(=O)c1cccc(F)c1C(F)(F)F)[C@H]1CCNC1 | > 10000
CC(C)CN(C(=O)c1cc(Cl)cc(Cl)c1)[C@H]1CCNC1 | > 10000
CCCN(C(=O)c1cccc(Cl)c1Cl)[C@H]1CCNC1 | > 18600
CC(C)CN(C(=O)c1cccc(Cl)c1Cl)[C@H]1CCNC1 | 20000
O=C(c1cccc(Cl)c1Cl)N(CCC1CC1)[C@H]1CCNC1 | 7140
CCC(CC)N(C(=O)c1cccc(Cl)c1Cl)[C@H]1CCNC1 | 7740

target: Kappa-type opioid receptor (Homo sapiens, UniProt P41145); assay: Binding affinity to kappa opioid receptor; settings: not given
Sequence (P41145 whole entry): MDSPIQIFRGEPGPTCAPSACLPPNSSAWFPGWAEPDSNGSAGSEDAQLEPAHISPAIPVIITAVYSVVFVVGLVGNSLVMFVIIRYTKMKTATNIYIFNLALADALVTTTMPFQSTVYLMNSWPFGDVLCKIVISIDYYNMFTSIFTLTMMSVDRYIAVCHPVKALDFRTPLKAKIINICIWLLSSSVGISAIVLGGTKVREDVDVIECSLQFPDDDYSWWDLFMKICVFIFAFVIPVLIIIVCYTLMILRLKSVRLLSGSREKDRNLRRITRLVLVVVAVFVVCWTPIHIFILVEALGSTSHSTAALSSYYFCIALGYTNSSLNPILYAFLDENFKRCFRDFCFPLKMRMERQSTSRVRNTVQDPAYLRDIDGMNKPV

SMILES | IC50 [nM]
CC(C)CN(C(=O)c1cccc(Cl)c1Cl)[C@H]1CCNC1 | 5800

target: Sodium-dependent noradrenaline transporter (Homo sapiens, UniProt P23975); assay: biochemical; settings: not given
Sequence (P23975 whole entry): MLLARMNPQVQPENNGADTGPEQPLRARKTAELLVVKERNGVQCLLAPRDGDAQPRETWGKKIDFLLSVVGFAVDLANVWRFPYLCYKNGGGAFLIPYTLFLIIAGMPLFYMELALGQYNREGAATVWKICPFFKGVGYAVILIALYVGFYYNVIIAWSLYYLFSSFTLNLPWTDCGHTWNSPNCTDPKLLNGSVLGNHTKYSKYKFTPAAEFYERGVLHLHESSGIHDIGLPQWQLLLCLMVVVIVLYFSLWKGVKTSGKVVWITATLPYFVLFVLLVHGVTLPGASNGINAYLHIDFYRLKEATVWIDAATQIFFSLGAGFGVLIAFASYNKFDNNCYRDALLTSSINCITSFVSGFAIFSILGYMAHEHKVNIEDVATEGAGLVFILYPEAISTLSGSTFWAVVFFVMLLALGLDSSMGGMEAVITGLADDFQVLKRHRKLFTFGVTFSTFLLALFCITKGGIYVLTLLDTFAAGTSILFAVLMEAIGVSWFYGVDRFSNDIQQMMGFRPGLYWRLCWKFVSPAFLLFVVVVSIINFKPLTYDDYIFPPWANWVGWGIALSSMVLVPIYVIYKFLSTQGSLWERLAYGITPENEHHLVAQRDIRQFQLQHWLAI

Ki [nM] | SMILES
103 | CC(C)CN(C(=O)c1cccc(C(F)(F)F)c1Cl)[C@H]1CCNC1
26 | CC(C)CN(C(=O)c1cccc(F)c1C(F)(F)F)[C@H]1CCNC1
43 | CC(C)CN(C(=O)c1cc(Cl)cc(Cl)c1)[C@H]1CCNC1
37 | CC(C)CN(C(=O)c1ccc(Cl)cc1Cl)[C@H]1CCNC1
36 | CCCN(C(=O)c1cccc(Cl)c1Cl)[C@H]1CCNC1
95 | O=C(c1cccc(Cl)c1Cl)N(CC(F)(F)F)[C@H]1CCNC1
24 | O=C(c1cccc(Cl)c1Cl)N(CCC1CC1)[C@H]1CCNC1
13 | CC(C)(C)CN(C(=O)c1cccc(Cl)c1Cl)[C@H]1CCNC1
11 | O=C(c1cccc(Cl)c1Cl)N(C1CCCC1)[C@H]1CCNC1
37 | CCC(CC)N(C(=O)c1cccc(Cl)c1Cl)[C@H]1CCNC1
52 | CC(C)C(=O)N(Cc1cccc(Cl)c1Cl)[C@H]1CCNC1

SMILES | Ki [nM]
CC(C)CN(C(=O)c1cccc(Cl)c1Cl)[C@@H]1CCNC1 | 169
CC(C)CN(C(=O)c1cccc(Cl)c1Cl)[C@H]1CCNC1 | 21

target: Cytochrome P450 2D6 (Homo sapiens, UniProt P10635); assay: Inhibition of CYP2D6; format: ADME; settings: not given

SMILES | IC50 [nM]
CC(C)CN(C(=O)c1cccc(Cl)c1Cl)[C@H]1CCNC1 | > 30000

species: Rattus norvegicus; assay: Toxicity in rat after 14 days; format: organism-based; settings: in vivo, 336 h

SMILES | Activity
CC(C)CN(C(=O)c1cccc(Cl)c1Cl)[C@H]1CCNC1 | Non-toxic

target: Sodium-dependent serotonin transporter (Homo sapiens, UniProt P31645); assay: biochemical; settings: not given
Sequence (P31645 whole entry): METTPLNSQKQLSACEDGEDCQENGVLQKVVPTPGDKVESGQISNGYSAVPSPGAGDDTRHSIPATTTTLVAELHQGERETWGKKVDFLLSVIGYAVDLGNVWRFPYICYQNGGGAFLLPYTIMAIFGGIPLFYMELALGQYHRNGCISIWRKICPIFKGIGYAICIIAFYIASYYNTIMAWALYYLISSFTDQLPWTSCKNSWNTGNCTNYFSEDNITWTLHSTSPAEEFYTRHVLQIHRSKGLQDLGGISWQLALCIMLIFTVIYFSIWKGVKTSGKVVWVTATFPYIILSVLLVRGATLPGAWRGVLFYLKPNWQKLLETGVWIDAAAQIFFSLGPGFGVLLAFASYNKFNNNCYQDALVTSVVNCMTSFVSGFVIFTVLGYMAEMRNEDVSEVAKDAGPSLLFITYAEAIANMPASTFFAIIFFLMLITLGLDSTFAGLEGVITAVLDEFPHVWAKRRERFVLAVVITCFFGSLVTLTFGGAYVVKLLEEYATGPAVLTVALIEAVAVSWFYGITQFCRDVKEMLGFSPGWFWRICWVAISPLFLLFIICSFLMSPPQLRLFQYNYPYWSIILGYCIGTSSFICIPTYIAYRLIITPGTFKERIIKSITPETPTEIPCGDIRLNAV

Ki [nM] | SMILES
11 | CC(C)CN(C(=O)c1cccc(C(F)(F)F)c1Cl)[C@H]1CCNC1
25 | CC(C)CN(C(=O)c1cccc(F)c1C(F)(F)F)[C@H]1CCNC1
6 | CC(C)CN(C(=O)c1cc(Cl)cc(Cl)c1)[C@H]1CCNC1
3 | CC(C)CN(C(=O)c1ccc(Cl)cc1Cl)[C@H]1CCNC1
16 | CCCN(C(=O)c1cccc(Cl)c1Cl)[C@H]1CCNC1
39 | O=C(c1cccc(Cl)c1Cl)N(CC(F)(F)F)[C@H]1CCNC1
15 | O=C(c1cccc(Cl)c1Cl)N(CCC1CC1)[C@H]1CCNC1
4 | CC(C)(C)CN(C(=O)c1cccc(Cl)c1Cl)[C@H]1CCNC1
6 | O=C(c1cccc(Cl)c1Cl)N(C1CCCC1)[C@H]1CCNC1
20 | CCC(CC)N(C(=O)c1cccc(Cl)c1Cl)[C@H]1CCNC1
9 | CC(C)C(=O)N(Cc1cccc(Cl)c1Cl)[C@H]1CCNC1

SMILES | Ki [nM]
CC(C)CN(C(=O)c1cccc(Cl)c1Cl)[C@@H]1CCNC1 | 13
CC(C)CN(C(=O)c1cccc(Cl)c1Cl)[C@H]1CCNC1 | 6

tested on: Plasma; assay: fCmax in Beagle dog plasma; format: ADME, organism-based, Canis lupus familiaris; settings: in vivo

SMILES | fCmax [nM]
CC(C)CN(C(=O)c1cccc(Cl)c1Cl)[C@H]1CCNC1 | 5

species: Canis familiaris; assay: Toxicity in Beagle dog after 14 days; format: organism-based, Canis lupus familiaris; settings: in vivo, 336 h

SMILES | Activity
CC(C)CN(C(=O)c1cccc(Cl)c1Cl)[C@H]1CCNC1 | Non-toxic

tested on: not listed separately; assay: Apparent permeability from apical to basolateral side of human Caco-2 cells at 10 uM; format: ADME, cell-based; settings: not given

SMILES | Papp A→B at 10 µM [×10⁻⁶ cm/s]
CC(C)CN(C(=O)c1cccc(Cl)c1Cl)[C@H]1CCNC1 | 12

tested on: Rattus norvegicus; assay: Toxicity in rat assessed as effect on locomotor activity at 15 mg/kg, po after 14 days; format: organism-based; design: dose 15 mg/kg, route oral; settings: in vivo, 336 h

SMILES | Activity
CC(C)CN(C(=O)c1cccc(Cl)c1Cl)[C@H]1CCNC1 | Non-toxic

target: Cytochrome P450 2C19 (Homo sapiens, UniProt P33261); assay: Inhibition of CYP2C19; format: ADME; settings: not given
Sequence (P33261 whole entry): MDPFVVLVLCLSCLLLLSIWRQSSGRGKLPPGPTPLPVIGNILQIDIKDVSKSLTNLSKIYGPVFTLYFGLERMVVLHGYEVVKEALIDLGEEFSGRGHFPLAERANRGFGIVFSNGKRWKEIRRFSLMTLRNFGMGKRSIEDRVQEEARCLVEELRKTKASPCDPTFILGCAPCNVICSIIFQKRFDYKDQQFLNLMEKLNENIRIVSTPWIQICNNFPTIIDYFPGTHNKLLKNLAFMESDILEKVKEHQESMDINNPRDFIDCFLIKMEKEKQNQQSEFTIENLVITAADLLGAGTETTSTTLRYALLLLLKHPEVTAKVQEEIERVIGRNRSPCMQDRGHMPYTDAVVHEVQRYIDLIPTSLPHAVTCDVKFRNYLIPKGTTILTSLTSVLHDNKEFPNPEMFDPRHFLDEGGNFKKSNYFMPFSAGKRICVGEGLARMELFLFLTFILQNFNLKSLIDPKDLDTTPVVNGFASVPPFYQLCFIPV

SMILES | IC50 [nM]
CC(C)CN(C(=O)c1cccc(Cl)c1Cl)[C@H]1CCNC1 | > 30000
